Data set [1] in a line: pI and pH of protein solutions. Type of data set: physicochemical.
The nature of data set [2]: Antiviral activity in similar assays (not specified).
The subject of another data set is herpesvirus. To be noted: cited from earlier work.
The next data set has as its system Semliki Forest virus. The settings on record: cited from earlier work.
For the next data set, the system named is mice. Put plainly: Toxicity assay in mice.
The next data set concerns NAChR. Type of data set: binding.

In data set [1], “alpha-cobratoxin [native alpha-cobratoxin]” had a pH of solution of 10.4 and a pI of 9.6. For the same substance, the antiviral activity result in data set [2] is listed as “does not demonstrate antiviral activity”. Also, the “antiviral activity against herpes” value in the data set on herpesvirus was “does not have any antiviral activity”. Besides, in the data set on Semliki Forest virus, the “antiviral activity against Semliki Forest virus” value is recorded as “does not have any antiviral activity”. Also, the LD50 in mice in the data set on mice (injected subcutaneously or intra-peritoneally) was determined as 1.2 µg. For the same substance, the time to death with mice (injection of 1.5 mcg, 25 g mouse) is no more than 25 min.

With autoclaved alpha-cobratoxin, the “binding to native receptor” value with NAChR is “still capable of binding to its native receptor”. In addition, the “antiviral activity against herpes” value in the data set on herpesvirus is listed as “no antiviral activity”. In the data set with Semliki Forest virus, the “antiviral activity against Semliki Forest virus” value was “no antiviral activity”.

Values taken from US20060088843A1 (priority 2004, published 2006).
